Experiments:
cDNA-expressed CYP2C8 = molecular target: T1, cDNA-expressed CYP2C8 (Homo sapiens, UniProt P10632); experiment: Metabolism by cDNA-expressed CYP2C8, parent remaining; conditions: 10 μM; for depletion by cDNA-expressed CYP2C8: 120 minutes
T1 sequence (P10632 1-490): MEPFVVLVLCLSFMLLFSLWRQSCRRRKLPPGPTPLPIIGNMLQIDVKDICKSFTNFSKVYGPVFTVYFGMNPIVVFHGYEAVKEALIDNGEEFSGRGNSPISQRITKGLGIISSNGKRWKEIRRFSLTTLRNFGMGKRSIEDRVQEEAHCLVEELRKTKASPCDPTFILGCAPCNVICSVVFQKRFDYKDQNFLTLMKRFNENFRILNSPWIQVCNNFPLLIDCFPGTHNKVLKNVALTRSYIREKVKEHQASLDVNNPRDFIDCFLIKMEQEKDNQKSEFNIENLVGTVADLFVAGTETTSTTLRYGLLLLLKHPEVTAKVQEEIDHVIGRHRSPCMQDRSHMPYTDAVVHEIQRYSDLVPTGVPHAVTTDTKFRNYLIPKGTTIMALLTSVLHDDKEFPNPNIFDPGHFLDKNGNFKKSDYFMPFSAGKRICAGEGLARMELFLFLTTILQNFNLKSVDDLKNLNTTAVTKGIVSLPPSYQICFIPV
Description: (§1) At two time points (0 and 120 min), the reaction was stopped by removing an aliquot and combining it with an equal volume of cold acetonitrile containing an internal standard (labetalol) and placement on ice. Samples were centrifuged to pellet the protein and the supernatant was frozen at −20° C. for subsequent analysis by LC-MS/MS.
(§2) Protein concentrations were constant for all isoforms within an experiment and standardized by the addition of control microsomes. Incubations were performed in duplicate. Incubations with vector control enzyme preparations and without enzyme source were included as negative controls.
(§3) The fraction of parent compound remaining compared to 0 min was determined based on peak area ratio (analyte/internal standard).

cDNA-expressed CYP2C9 = cDNA-expressed CYP2C9 (Homo sapiens, UniProt P11712); experiment: Metabolism by cDNA-expressed CYP2C9, parent remaining; conditions: 10 μM; for depletion by cDNA-expressed CYP2C9: 120 minutes
cDNA-expressed CYP2C9, sequence (P11712 whole entry): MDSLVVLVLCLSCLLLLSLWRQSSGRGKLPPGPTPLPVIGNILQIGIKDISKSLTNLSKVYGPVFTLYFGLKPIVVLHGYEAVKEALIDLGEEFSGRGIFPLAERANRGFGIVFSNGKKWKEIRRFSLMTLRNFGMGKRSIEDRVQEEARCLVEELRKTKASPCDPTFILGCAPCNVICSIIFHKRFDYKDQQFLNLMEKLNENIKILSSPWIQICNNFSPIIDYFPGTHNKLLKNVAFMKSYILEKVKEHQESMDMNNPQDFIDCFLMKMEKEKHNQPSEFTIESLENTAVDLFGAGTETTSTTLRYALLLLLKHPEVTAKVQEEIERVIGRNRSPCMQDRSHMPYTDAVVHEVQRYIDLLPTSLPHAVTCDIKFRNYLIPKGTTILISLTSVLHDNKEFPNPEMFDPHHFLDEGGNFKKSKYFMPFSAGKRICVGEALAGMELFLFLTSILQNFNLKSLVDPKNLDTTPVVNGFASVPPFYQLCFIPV
Description: as §1, §2, §3

[1] = tested on: cDNA-expressed CYP1A2, CYP2A6, CYP2B6, CYP2C8, CYP2C9, CYP2C19, CYP2D6, CYP2E1, CYP3A4, and CYP3A5; experiment: Metabolism by cDNA-expressed human CYP enzymes (all isoforms), parent remaining by LC-MS/MS; conditions: 1.0 μM and 10 μM, 120 minutes incubation, 37° C., compared to 0 min
Description: as §1, §2
All other positive controls were assayed at one concentration in duplicate in accordance with the methods described above. The percent of parent remaining at the end of the incubation was compared to 0 min based on the peak area ratio of the substrate and internal standard.
as §3

[2] = in vivo; cited from earlier work

In the case of “α,2-dimethyl-5-nitro-1H-imidazole-1-ethanol-d3 [secnidazole-d3]”, the “depletion by cDNA-expressed CYP2C8” value (cDNA-expressed CYP2C8) is reported as “did not demonstrate any depletion”, the “depletion by cDNA-expressed CYP2C9” value (cDNA-expressed CYP2C9) is reported as “did not demonstrate any depletion” and the “average percent of parent compound remaining for all isoforms and concentrations” value [1] is reported as “greater than 96%”.
With “α,2-dimethyl-5-nitro-1H-imidazole-1-ethanol-d6 [secnidazole-d6]” the “depletion by cDNA-expressed CYP2C8” value (cDNA-expressed CYP2C8) was “did not demonstrate any depletion”, the “depletion by cDNA-expressed CYP2C9” value (cDNA-expressed CYP2C9) was “did not demonstrate any depletion” and the “average percent of parent compound remaining for all isoforms and concentrations” value [1] was “less than 100%”.
In the case of `Cc1ncc([N+](=O)[O-])n1CC(C)O` (stereo not drawn) [secnidazole, 1-(2-methyl-5-nitro-1H-imidazol-1-yl) propan-2-ol, reference compound], the “percent of parent remaining” value (cDNA-expressed CYP2C8; human, 2 h, pH 7.4) is listed as 82%, the “excreted intact in the urine” value [2] is listed as 50% and the “percent of parent remaining” value (cDNA-expressed CYP2C9; human, 2 h, pH 7.4) is listed as 79%.

From US12172969B2 (EVOFEM BIOSCIENCES, INC., priority 2018, dated 2024)
